Source: paper PMC7999318 (International Journal of Molecular Sciences, 2021)
pIC50: −log10 of the molar value.

Experiments:
CYPs-ELuc-HepG2 cells [1] = tested on: CYPs-ELuc-HepG2 cells
CYPs-HepG2 cells = conditions: cited from earlier work
ELuc-HepG2 cells [2] = tested on: ELuc-HepG2 cells
ELuc-HepG2 cells [3] = tested on: ELuc-HepG2 cells; remark: listed apart in the source
CYPs-ELuc-HepG2 cells [4] = tested on: CYPs-ELuc-HepG2 cells; remark: listed apart in the source
wild-type HepG2 cells = conditions: cited from earlier work
ELuc-HepG2 cells [5] = tested on: ELuc-HepG2 cells; remark: listed apart in the source
CYPs-ELuc-HepG2 cells [6] = tested on: CYPs-ELuc-HepG2 cells; remark: listed apart in the source

| Molecule | bioluminescence intensity (CYPs-ELuc-HepG2 cells [1]) | cytotoxicity (CYPs-HepG2 cells) | bioluminescence intensity (ELuc-HepG2 cells [2]) | bioluminescence intensity in real time (ELuc-HepG2 cells [3]) | bioluminescence intensity in real time (CYPs-ELuc-HepG2 cells [4]) | cytotoxicity (wild-type HepG2 cells) | also measured |
| --- | --- | --- | --- | --- | --- | --- | --- |
| aflatoxin B1 | concentration-dependent decrease | showed cytotoxicity | did not decrease | no decrease | time- and concentration-dependent decreases | not | IC50 values during long-term culture (CYPs-ELuc-HepG2 cells [1]): almost unchanged; aflatoxin B1 concentration-dependent decrease of bioluminescence intensity under CYP inhibitor (CYPs-ELuc-HepG2 cells [1]): completely diminished; first IC50 value (ELuc-HepG2 cells [3]): not observed; decrease of bioluminescence intensity under CYP3A4 inhibitor (CYPs-ELuc-HepG2 cells [4]): partially diminished; pIC50 (CYPs-ELuc-HepG2 cells [4]; read-out: first IC50 value): 5.10 |
| CCCCCCCCCCCCOS(=O)(=O)[O-].[Na+] [SDS, sodium dodecyl sulfate] |  |  |  |  |  |  | concentration-response curves compared with ELuc-HepG2 cells (bioluminescence) (CYPs-ELuc-HepG2 cells [1]; 3 days): very similar concentration-response curves |
| OC[C@@H](O)[C@@H](O)[C@H](O)[C@H](O)CO [D-mannitol] | no remarkable changes |  | no remarkable changes |  |  |  | viability by WST-1 assay (ELuc-HepG2 cells [5]): no remarkable changes; bioluminescence intensities during long-term culture (CYPs-ELuc-HepG2 cells [1]): no significant changes; viability by WST-1 assay (CYPs-ELuc-HepG2 cells [6]): no remarkable changes |
| Nn1nnc2ccccc21 [ABT, 1-aminobenzotriazole] | not affected |  | not affected |  |  |  |  |
| COc1cc(NC(C)CCCN)c2ncccc2c1 (centres unmarked) [primaquine] |  |  |  | Time- and concentration-dependent decreases | much faster decrease |  | time at which the first IC50 value was noted (ELuc-HepG2 cells [3]): 22 h; decrease of bioluminescence intensity under CYP2D6 inhibitor (CYPs-ELuc-HepG2 cells [4]): partially abolished; time at which the first IC50 value was noted (CYPs-ELuc-HepG2 cells [4]): 12 h |
| COc1cc2c(c3oc4cccc(O)c4c(=O)c13)[C@@H]1C=CO[C@@H]1O2 [sterigmatocystin] |  | showed cytotoxicity |  |  |  | not |  |
